According to patent US20260272916A1, “RADIATION SENSITIVITY ENHANCING COMPOSITION CONTAINING ARIPIPRAZOLE AS ACTIVE INGREDIENT” (KOREA INSTITUTE OF RADIOLOGICAL & MEDICAL SCIENCES, priority 2018, published 2026):

What was measured:
U251 cells = experiment: DNA fragmentation, Cell Death Detection ELISA plus kit; type: cell-based; settings: U251, combination with radiation vs single treatments, 24 hours, FIG. 4
Description: (§1) After the MCF-7 cells or U251 cells were adjusted to a concentration of 5000 cells/well, they were inoculated into a 96 well plate and pre-cultured for 24 hours. Thereafter, the medium was removed and aripiprazole was treated alone or in combination with radiation. After 24 hours, the degree of DNA fragmentation was confirmed using Roche's Cell Death Detection ELISA plus kit.

MCF-7 cells [1] = settings: 24 hours, FIG. 3
Description: The MCF-7 cells were treated with aripiprazole (1, 5, 10, 20 μM) alone or in combination with radiation. After 24 hours, after washing with PBS, proteins were extracted from the cells, and the degree of PARP cleavage was confirmed by Western blot.
(§2) After 24 hours, after washing with PBS, proteins were extracted from the cells, and the degree of PARP cleavage was confirmed by Western blot.
as §2

MCF-7 cells [2] = settings: MCF-7, combination with radiation vs single treatments, 24 hours, FIG. 4
Description: as §1
(§3) After 24 hours, the degree of DNA fragmentation was confirmed using Roche's Cell Death Detection ELISA plus kit.
as §3

MCF-7 cells [3] = experiment: Cell viability at various aripiprazole concentrations alone or with radiation (EZ-Cytox); type: cell-based, human; settings: 96 hours, FIG. 2
Description: In order to confirm the effect of aripiprazole on radiation sensitivity in cancer cells, a cell viability measurement experiment was performed in breast cancer cells having radiation resistance using the […] as follows. After the MCF-7 cells were adjusted to a concentration of 5000 cells/well, they were inoculated into a 96-well plate and pre-cultured for 24 hours. Thereafter, the medium was removed and aripiprazole ([…]) was treated alone or in combination with radiation. After 96 hours, the survival rate of cells was measured by Dogen's EZ-Cytox Cell Viability Assay kit.

MCF-7 cells [4] = experiment: Drug library screen for radiation sensitizers, EZ-Cytox cell viability; type: cell-based, human; design: dose or concentration left out as unconfirmed; settings: 96 hours, FIG. 1
Description: MCF-7 cells, a human breast cancer cell line, were adjusted to a concentration of 5000 cells/well, then inoculated into a 96 well plate and pre-cultured for 24 hours. Subsequently, the medium was removed, and each drug in Enzo's drug library at a concentration of […] was treated alone or in combination with radiation. After 96 hours, the survival rate of cells was measured by Dogen's EZ-Cytox Cell Viability Assay kit.

Compound: O=C1CCc2ccc(OCCCCN3CCN(c4cccc(Cl)c4Cl)CC3)cc2N1 [aripiprazole, 7-{4-[4-(2,3-dichlorophenyl)-1-piperazinyl]-butoxy}-3,4-dihydro-2(1H)-quinolinone]
- DNA fragmentation inducing effect (U251 cells): superior to the effect of adding up each treatment
- induction of apoptosis in radiation-treated cancer cells (MCF-7 cells [1]; MCF-7, aripiprazole 1, 5, 10, 20 μM with radiation): induce apoptosis in radiation-treated cancer cells in a concentration-dependent manner
- PARP cleavage induction effect (MCF-7 cells [1]; MCF-7, aripiprazole 1, 5, 10, 20 μM, combination with radiation vs alone): more excellent when treated in combination with radiation than treated aripiprazole alone
- DNA fragmentation inducing effect (MCF-7 cells [2]): superior to the effect of adding up each treatment
- radiation sensitizing effect (MCF-7 cells [3]; MCF-7, aripiprazole 5, 10, 20 μM with radiation): excellent radiation sensitizing effect in a concentration-dependent manner
- survival rate reduction effect (MCF-7 cells [3]; MCF-7, aripiprazole 5, 10, 20 µM, combination with radiation vs alone): more excellent when treated in combination with radiation than the treatment with aripiprazole alone
- survival rate of cells (MCF-7 cells [4]; MCF-7, drug treatment alone): no effect on the survival rate of cells
- survival rate of cells (MCF-7 cells [4]; MCF-7, in combination with radiation): lowers the survival rate of radiation-resistant cells
